Target: T1, Accessory gene regulator protein A (Staphylococcus aureus, UniProt P0A0I7)
T1 sequence (P0A0I7 whole entry): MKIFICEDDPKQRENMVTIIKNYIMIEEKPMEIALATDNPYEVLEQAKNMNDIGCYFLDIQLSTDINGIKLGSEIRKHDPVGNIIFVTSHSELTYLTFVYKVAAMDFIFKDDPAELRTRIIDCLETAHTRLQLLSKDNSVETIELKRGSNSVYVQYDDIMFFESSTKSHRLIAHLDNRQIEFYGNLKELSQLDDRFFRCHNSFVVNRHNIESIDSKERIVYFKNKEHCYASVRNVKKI
Test: Inhibition of Staphylococcus aureus RN6390B Agr-mediated RNA3 promoter activation measured up to 6 hrs by Northern blot analysis

IC50: 6 µM
SMILES: CCCCCCCCCC(=O)CC(=O)N[C@H]1CCOC1=O

From BindingDB's records for doi:10.1021/jm3014635 (University of Nottingham, 2013)
